In patent US8642516B2, “Chemically-defined arrays for screening cell-substrate interactions” (Wisconsin Alumni Research Foundation, priority 2012, dated 2014):

Experiments:
Assay type in all cases: cell-based, human
[1] = tested on: hMSC; assay: hMSC migration (single cell tracking) on SAM array spots presenting GRGDSP; conditions: hMSCs, each ligand density condition (0.06%-5%)
Method: (§1) For cell assays on SAM arrays, HUVECs or hMSCs were removed from plastic culture plates using a 0.05% trypsin solution, resuspended in media, and seeded onto SAM arrays in sterile polystyrene Petri dishes. After allowing cells to attach for ˜1 hour in a humidified incubator at 37° C. and 5% CO2, arrays were dipped in warm media to remove loosely attached cells and then transferred to a rectangular multidish (Thermo Scientific/Nunc, Rochester, N.Y.) with warm media and imaged ˜4 hours later serving as “0 hr.” For the initial time point and subsequent time-lapse imaging, arrays were placed on an incubated stage and each array spot was imaged every 15 minutes for 72 hours. […]
(§2) Relative cell attachment at 0 hrs was quantified by counting the number of attached cells per spot and normalizing cell numbers to maximal attachment conditions. Normalized cell number was calculated by dividing the number of cells per spot at 72 hours (C72) to the cell number observed on the same spot at 0 hrs (C0). Relative proliferation was determined by dividing normalized cell numbers at 72 hours by the maximum average normalized cell number observed across GRGDSP density conditions. Similarly, relative spreading was determined by dividing projected cell areas to the maximum average projected cell area observed across GRGDSP density conditions. […]

[2] = tested on: HUVEC; assay: HUVEC spreading (projected cell area) on SAM array spots presenting GRGDSP
Method: For cell assays on SAM arrays, HUVECs or hMSCs were removed from plastic culture plates using a 0.05% trypsin solution, resuspended in media, and seeded onto SAM arrays in sterile polystyrene Petri dishes. After allowing cells to attach for ˜1 hour in a humidified incubator at 37° C. and 5% CO2, arrays were dipped in warm media to remove loosely attached cells and then transferred to a rectangular multidish (Thermo Scientific/Nunc, Rochester, N.Y.) with warm media and imaged ˜4 hours later serving as “0 hr.” For the initial time point and subsequent time-lapse imaging, arrays were placed on an incubated stage and each array spot was imaged every 15 minutes for 72 hours. Furthermore, it is important to point out that all cell experiments for comparison between HUVECs and hMSCs were run simultaneously.
For immunocytochemistry, at 24 and 72 hour time points during the time-lapse experiment, staining for the actin cytoskeleton and focal adhesion markers was performed as directed by the manufacturer (Catalog No. FAK100, Millipore, Billerica, Mass.). […]
Relative cell attachment at 0 hrs was quantified by counting the number of attached cells per spot and normalizing cell numbers to maximal attachment conditions. Normalized cell number was calculated by dividing the number of cells per spot at 72 hours (C72) to the cell number observed on the same spot at 0 hrs (C0). Relative proliferation was determined by dividing normalized cell numbers at 72 hours by the maximum average normalized cell number observed across GRGDSP density conditions. Similarly, relative spreading was determined by dividing projected cell areas to the maximum average projected cell area observed across GRGDSP density conditions. […] For each spot, average cell projected area was calculated by dividing the thresholded actin staining (red channel) by the total number of nuclei in the same spot. […]
Specifically, SAM arrays were prepared as described above. […] Cell spreading was determined by culturing HUVECs and hMSCs for 24 hours and 72 hours and analyzed by cell staining and quantified by measuring projected cell area. […]

[3] = tested on: hMSC; assay: hMSC spreading (projected cell area) on SAM array spots presenting GRGDSP; conditions: hMSCs
Method: as §1, §2

Substance: GRGDSP
- fraction of migrating cells [1]: greater than 37%
- maximal HUVEC spreading (projected cell area) ([2]; 72 hours, SAM spots with 1.67% and 5% GRGDSP): 6000 μm^2
- maximal projected cell area ([2]; HUVECs, 24 hrs, SAM spots with 1.6% and 5% GRGDSP): greater than 4000 μm^2
- change in projected cell area from 24 to 72 hrs ([2]; HUVECs, all GRGDSP densities above 0.06%): increasing their projected cell area
- maximal projected cell area ([3]; 24 hrs, SAM spots with 1.6% and 5% GRGDSP): greater than 4000 μm^2
- change in projected cell area from 24 to 72 hrs ([3]; across several GRGDSP densities): slight decreases
